Measured values from patent US20250129430A1, “HIGH ATP-AFFINITY PROTEIN AS THERAPEUTIC TARGET FOR INTRACTABLE CANCER MOLECULAR SUBTYPES AND INHIBITOR THEREOF” (VeraVerse Co., Ltd., priority 2021, published 2025).

How the values were obtained:
Experiment in all cases: Cell viability drug screen, 12-point dose-response AUC
Type in all cases: cell-based, human
FU97 = system: FU97; design: Average Area Under the Viability Curve (AUC), AUC norm value: scale not given here; details: FU97 cells, 72 hours
Procedure: (§1) Cells cultured for cell-based drug assay were inoculated into a 96-well white optical plate (Corning) at 5×10^3 cells per well. After 24 hours after inoculation, a 2.5 MJT (primary screen) or a half-log 12-serial diluent (secondary screen) of the pharmacological compound contained in DMSO is added to the cells with a robot using a BioMek FXp liquid processor (Beckman) to add to the cells at 50 mM. The final drug concentration in the 5 ns range and the DMSO specification control (0.5%) were calculated. The cells were then further incubated at 37° C. in a 5% CO2 incubator for 72 hours prior to measuring cell viability using the extra-GLO assay kit (Promega). The luminescent properties were measured after 15 min incubation at room temperature using a plate stacker equipped with a plate stacker. The normalized viability for the DMSO-based control was measured to generate a cell line-specific 12-point dose-response curve for each pharmacological compound, and then the area under the curve (AUC) was calculated using a trapezoidal method.

SNU1750 = details: 72 hours
Procedure: (§2) An FDA-approved small-molecule pharmacological compound (#L1300) and an anticancer compound for research (#L2000) were purchased from Selecckchem and a 10 mM solution was prepared in DMSO. A total of 1,345 compounds were tested the cell viability of the seven EMT gastric cancer cell lines.
as §1, with “method. […] The results of the repeated experiments were averaged to generate AUC values for each cell line for each compound.” for “method.”

NCC59 = NCC59 cells, 72 hours
Procedure: as §2
as §1, with “method. […] The results of the repeated experiments were averaged to generate AUC values for each cell line for each compound.” for “method.”

SNU1 = SNU1 cells, 72 hours
Procedure: as §2
as §1, with “method. […] The results of the repeated experiments were averaged to generate AUC values for each cell line for each compound.” for “method.”

SNU601 = SNU601 cells, 72 hours
Procedure: as §2
as §1, with “method. […] The results of the repeated experiments were averaged to generate AUC values for each cell line for each compound.” for “method.”

MKN28 = MKN28 cells, 72 hours
Procedure: as §2
as §1, with “method. […] The results of the repeated experiments were averaged to generate AUC values for each cell line for each compound.” for “method.”

MKN1 = MKN1 cells, 72 hours
Procedure: as §2
as §1, with “method. […] The results of the repeated experiments were averaged to generate AUC values for each cell line for each compound.” for “method.”

NCC19 = NCC19 cells, 72 hours
Procedure: as §2
as §1, with “method. […] The results of the repeated experiments were averaged to generate AUC values for each cell line for each compound.” for “method.”

SNU719 = SNU719 cells, 72 hours
Procedure: as §2
as §1, with “method. […] The results of the repeated experiments were averaged to generate AUC values for each cell line for each compound.” for “method.”

NCC24 = NCC24 cells, 72 hours
Procedure: as §2
as §1, with “method. […] The results of the repeated experiments were averaged to generate AUC values for each cell line for each compound.” for “method.”

MKN74 = MKN74 cells, 72 hours
Procedure: as §2
as §1, with “method. […] The results of the repeated experiments were averaged to generate AUC values for each cell line for each compound.” for “method.”

YCC2 = YCC2 cells, 72 hours
Procedure: as §2
as §1, with “method. […] The results of the repeated experiments were averaged to generate AUC values for each cell line for each compound.” for “method.”

YCC3 = YCC3 cells, 72 hours
Procedure: as §2
as §1, with “method. […] The results of the repeated experiments were averaged to generate AUC values for each cell line for each compound.” for “method.”

KATO3 = KATO3 cells, 72 hours
Procedure: as §2
as §1, with “method. […] The results of the repeated experiments were averaged to generate AUC values for each cell line for each compound.” for “method.”

SK4 = details: 72 hours
Procedure: as §2
as §1, with “method. […] The results of the repeated experiments were averaged to generate AUC values for each cell line for each compound.” for “method.”

MKN45 = details: 72 hours
Procedure: as §2
as §1, with “method. […] The results of the repeated experiments were averaged to generate AUC values for each cell line for each compound.” for “method.”

OCUM1 = OCUM1 cells, 72 hours
Procedure: as §2
as §1, with “method. […] The results of the repeated experiments were averaged to generate AUC values for each cell line for each compound.” for “method.”

SNU668 = details: 72 hours
Procedure: as §2
as §1, with “method. […] The results of the repeated experiments were averaged to generate AUC values for each cell line for each compound.” for “method.”

Hs746T = details: 72 hours
Procedure: as §2
as §1, with “method. […] The results of the repeated experiments were averaged to generate AUC values for each cell line for each compound.” for “method.”

SNU484 = details: 72 hours
Procedure: as §2
as §1, with “method. […] The results of the repeated experiments were averaged to generate AUC values for each cell line for each compound.” for “method.”

SNU16 = SNU16 cells, 72 hours
Procedure: as §2
as §1, with “method. […] The results of the repeated experiments were averaged to generate AUC values for each cell line for each compound.” for “method.”

SNU620 = SNU620 cells, 72 hours
Procedure: as §2
as §1, with “method. […] The results of the repeated experiments were averaged to generate AUC values for each cell line for each compound.” for “method.”

SNU216 = details: 72 hours
Procedure: as §2
as §1, with “method. […] The results of the repeated experiments were averaged to generate AUC values for each cell line for each compound.” for “method.”

NCI_N87 = NCI_N87 cells, 72 hours
Procedure: as §2
as §1, with “method. […] The results of the repeated experiments were averaged to generate AUC values for each cell line for each compound.” for “method.”

AGS = details: 72 hours
Procedure: as §2
as §1, with “method. […] The results of the repeated experiments were averaged to generate AUC values for each cell line for each compound.” for “method.”

SNU1967 = SNU1967 cells, 72 hours
Procedure: as §2
as §1, with “method. […] The results of the repeated experiments were averaged to generate AUC values for each cell line for each compound.” for “method.”

NCC20 = NCC20 cells, 72 hours
Procedure: as §2
as §1, with “method. […] The results of the repeated experiments were averaged to generate AUC values for each cell line for each compound.” for “method.”

SNU638 = SNU638 cells, 72 hours
Procedure: as §2
as §1, with “method. […] The results of the repeated experiments were averaged to generate AUC values for each cell line for each compound.” for “method.”

YCC11 = details: 72 hours
Procedure: as §2
as §1, with “method. […] The results of the repeated experiments were averaged to generate AUC values for each cell line for each compound.” for “method.”

## Nc1ccn([C@@H]2O[C@H](CO)[C@@H](O)C2(F)F)c(=O)n1 [Gemcitabine (Gemzar), Gemcitabine]
FU97
  Average Area Under the Viability Curve (AUC), AUC norm value: 1.888
SNU1750; SNU1750 cells (SEM subtype)
  Average Area Under the Viability Curve (AUC), AUC norm value: 0
NCC59
  Average Area Under the Viability Curve (AUC), AUC norm value: 3.024
SNU1
  Average Area Under the Viability Curve (AUC), AUC norm value: −0.3367
SNU601
  Average Area Under the Viability Curve (AUC), AUC norm value: 0.2471
MKN28
  Average Area Under the Viability Curve (AUC), AUC norm value: 1.089
MKN1
  Average Area Under the Viability Curve (AUC), AUC norm value: −0.9169
NCC19
  Average Area Under the Viability Curve (AUC), AUC norm value: 1.697
SNU719
  Average Area Under the Viability Curve (AUC), AUC norm value: 3.628
NCC24
  Average Area Under the Viability Curve (AUC), AUC norm value: −1.1
MKN74
  Average Area Under the Viability Curve (AUC), AUC norm value: −1.402
YCC2
  Average Area Under the Viability Curve (AUC), AUC norm value: 0.1111
YCC3
  Average Area Under the Viability Curve (AUC), AUC norm value: 0.1853
KATO3
  Average Area Under the Viability Curve (AUC), AUC norm value: 4.1466
SK4; SK4 cells (SEM subtype)
  Average Area Under the Viability Curve (AUC), AUC norm value: −0.8764
MKN45; MKN45 cells (non-SEM subtype)
  Average Area Under the Viability Curve (AUC), AUC norm value: 1.053
OCUM1
  Average Area Under the Viability Curve (AUC), AUC norm value: −1.402
SNU668; SNU668 cells (SEM subtype)
  Average Area Under the Viability Curve (AUC), AUC norm value: −1.312
Hs746T; Hs746T cells (SEM subtype)
  Average Area Under the Viability Curve (AUC), AUC norm value: 1.71
SNU484; SNU484 cells (SEM subtype)
  Average Area Under the Viability Curve (AUC), AUC norm value: −0.2757
SNU16
  Average Area Under the Viability Curve (AUC), AUC norm value: 0.514
SNU620
  Average Area Under the Viability Curve (AUC), AUC norm value: −1.64
SNU216; SNU216 cells (non-SEM subtype)
  Average Area Under the Viability Curve (AUC), AUC norm value: 1.837
NCI_N87
  Average Area Under the Viability Curve (AUC), AUC norm value: 1.33
AGS; AGS cells (non-SEM subtype)
  Average Area Under the Viability Curve (AUC), AUC norm value: −2.364
SNU1967
  Average Area Under the Viability Curve (AUC), AUC norm value: −4.705
NCC20
  Average Area Under the Viability Curve (AUC), AUC norm value: −0.9089
SNU638
  Average Area Under the Viability Curve (AUC), AUC norm value: −2.404
YCC11; YCC11 cells (SEM subtype)
  Average Area Under the Viability Curve (AUC), AUC norm value: −1.649

## Cc1ccc(C(=O)N(CCCN)[C@@H](c2oc3cc(Cl)ccc3c(=O)c2Cc2ccccc2)C(C)C)cc1 [SB 743921]
FU97; 12-point dose-response
  area under the viability curve (AUC), normalized: 0.8407
SNU1750; SNU1750 cells, 12-point dose-response
  area under the viability curve (AUC), normalized: 0.00014
NCC59; 12-point dose-response
  area under the viability curve (AUC), normalized: 2.285
SNU1; 12-point dose-response
  area under the viability curve (AUC), normalized: −0.9587
SNU601; 12-point dose-response
  area under the viability curve (AUC), normalized: −1.703
MKN28; 12-point dose-response
  area under the viability curve (AUC), normalized: −1.699
MKN1; 12-point dose-response
  area under the viability curve (AUC), normalized: −1.406
NCC19; 12-point dose-response
  area under the viability curve (AUC), normalized: 1.296
SNU719; 12-point dose-response
  area under the viability curve (AUC), normalized: 2.115
NCC24; 12-point dose-response
  area under the viability curve (AUC), normalized: −2.238
MKN74; 12-point dose-response
  area under the viability curve (AUC), normalized: 0.00599
YCC2; 12-point dose-response
  area under the viability curve (AUC), normalized: 0.2048
YCC3; 12-point dose-response
  area under the viability curve (AUC), normalized: 2.421
KATO3; 12-point dose-response
  area under the viability curve (AUC), normalized: 3.189
SK4; SK4 cells, 12-point dose-response
  area under the viability curve (AUC), normalized: −0.9769
MKN45; MKN45 cells, 12-point dose-response
  area under the viability curve (AUC), normalized: 2.818
OCUM1; 12-point dose-response
  area under the viability curve (AUC), normalized: 1.653
SNU668; SNU668 cells, 12-point dose-response
  area under the viability curve (AUC), normalized: 0
Hs746T; Hs746T cells, 12-point dose-response
  area under the viability curve (AUC), normalized: 1.359
SNU484; SNU484 cells, 12-point dose-response
  area under the viability curve (AUC), normalized: −1.3076
SNU16; 12-point dose-response
  area under the viability curve (AUC), normalized: −1.454
SNU620; 12-point dose-response
  area under the viability curve (AUC), normalized: −2.366
SNU216; SNU216 cells, 12-point dose-response
  area under the viability curve (AUC), normalized: 2.438
NCI_N87; 12-point dose-response
  area under the viability curve (AUC), normalized: −1.205
AGS; AGS cells, 12-point dose-response
  area under the viability curve (AUC), normalized: −2.366
SNU1967; 12-point dose-response
  area under the viability curve (AUC), normalized: 0.8572
NCC20; 12-point dose-response
  area under the viability curve (AUC), normalized: −1.288
SNU638; 12-point dose-response
  area under the viability curve (AUC), normalized: −0.2572
YCC11; YCC11 cells, 12-point dose-response
  area under the viability curve (AUC), normalized: −1.353
